Assay results: ChEMBL document CHEMBL3120146, “Synthesis and biological evaluation of new boron-containing chlorin derivatives as agents for both photodynamic therapy and boron neutron capture therapy of cancer” (Bioorg Med Chem Lett, 2014)
Calls of active or inactive are those of the source. The rule behind the calls is not given here.

Experiments:
Colon 26 [1] = assay: Antitumor activity against mouse Colon 26 cells allografted in BALB/c mouse assessed as tumor growth inhibition at 10 umol/kg, iv pretreated for 3 hrs followed by light-emitting diode irradiation at 660 nm wavelength measured after 3 to 7 days by photodynamic therapy; assay type: functional, organism-based; details: tested as the 10B-labelled form
Serum [2] = assay: Biodistribution in BALB/c mouse serum allografted with mouse Colon 26 cells at 10 umol/kg, iv measured at 24 hrs by spectrofluorometric analysis; assay type: ADME, organism-based; details: in vivo
Colon 26 [3] = assay: Cytotoxicity against mouse Colon 26 cells assessed as cell viability at 1 to 10 uM after 24 hrs by WST-8 assay; assay type: cell-based; details: colon 26, 24 h
Zone of skin = assay: Biodistribution in BALB/c mouse skin allografted with mouse Colon 26 cells at 10 umol/kg, iv measured at 24 hrs by spectrofluorometric analysis; assay type: ADME, organism-based; details: in vivo
Brain = assay: Biodistribution in BALB/c mouse brain allografted with mouse Colon 26 cells at 10 umol/kg, iv measured at 24 hrs by spectrofluorometric analysis; assay type: ADME, organism-based; details: in vivo
Liver [4] = assay: Biodistribution in BALB/c mouse liver allografted with mouse Colon 26 cells at 10 umol/kg, iv measured at 24 hrs by spectrofluorometric analysis; assay type: ADME, organism-based; details: in vivo
Muscle tissue = assay: Biodistribution in BALB/c mouse muscle allografted with mouse Colon 26 cells at 10 umol/kg, iv measured at 24 hrs by spectrofluorometric analysis; assay type: ADME, organism-based; details: in vivo
[5] = Solubility of the compound in water; assay type: physicochemical
Tumour [6] = assay: Biodistribution in tumor of BALB/c mouse allografted with mouse Colon 26 cells at 10 umol/kg, iv measured at 12 hrs by spectrofluorometric analysis; assay type: ADME, organism-based; details: in vivo
Kidney = assay: Biodistribution in BALB/c mouse kidney allografted with mouse Colon 26 cells at 10 umol/kg, iv measured at 24 hrs by spectrofluorometric analysis; assay type: ADME, organism-based; details: in vivo
Lung = assay: Biodistribution in BALB/c mouse lung allografted with mouse Colon 26 cells at 10 umol/kg, iv measured at 24 hrs by spectrofluorometric analysis; assay type: ADME, organism-based; details: in vivo
Spleen = assay: Biodistribution in BALB/c mouse spleen allografted with mouse Colon 26 cells at 10 umol/kg, iv measured at 24 hrs by spectrofluorometric analysis; assay type: ADME, organism-based; details: in vivo
Serum [7] = assay: Biodistribution in BALB/c mouse serum allografted with mouse Colon 26 cells at 10 umol/kg, iv measured at 3 hrs by spectrofluorometric analysis; assay type: ADME, organism-based; details: in vivo
Serum [8] = assay: Biodistribution in BALB/c mouse serum allografted with mouse Colon 26 cells at 10 umol/kg, iv measured at 1 hr by spectrofluorometric analysis; assay type: ADME, organism-based; details: in vivo
Liver [9] = assay: Biodistribution in BALB/c mouse liver allografted with mouse Colon 26 cells at 10 umol/kg, iv measured at 1 to 12 hrs by spectrofluorometric analysis; assay type: ADME, organism-based; details: in vivo
Tumour [10] = assay: Biodistribution in tumor of BALB/c mouse allografted with mouse Colon 26 cells at 10 umol/kg, iv measured at 3 hrs by spectrofluorometric analysis; assay type: ADME, organism-based; details: in vivo
Serum [11] = assay: Biodistribution in BALB/c mouse serum allografted with mouse Colon 26 cells at 10 umol/kg, iv measured at 6 to 12 hrs by spectrofluorometric analysis; assay type: ADME, organism-based; details: in vivo

| Drug uptake (Serum [2]) | Drug uptake (Zone of skin) | Drug uptake (Brain) | Drug uptake (Liver [4]) | Drug uptake (Muscle tissue) | solubility [5] [µg/mL] | Drug uptake (Tumour [6]) [pmol/mg] | Drug uptake (Kidney) | Drug uptake (Lung) | Drug uptake (Spleen) | Drug uptake (Serum [7]) [pmol/mg] | Drug uptake (Serum [8]) [pmol/mg] | Drug uptake (Liver [9]) | Drug uptake (Tumour [10]) [pmol/mg] | Drug uptake (Serum [11]) | Structure (SMILES) | TGI (Colon 26 [1]) | Activity (Colon 26 [3]) |
| --- | --- | --- | --- | --- | --- | --- | --- | --- | --- | --- | --- | --- | --- | --- | --- | --- | --- |
| – | – | – | – | – | – | – | – | – | – | – | – | – | – | – | C=Cc1c(C)c2cc3nc(cc4[nH]c(cc5nc(cc1[nH]2)C(C)(O)/C5=C\C=N\OCC)c(C)c4CCC(=O)NC(Cc1ccc(B(O)O)cc1)C(=O)O)C(CCC(=O)NC(Cc1ccc(B(O)O)cc1)C(=O)O)=C3C (configuration not stated) | Active | – |
| Not Active | Active | Active | Active | Active | 100 | 0.21 | Active | Active | Active | – | – | – | – | – | C=Cc1c(C)c2cc3nc(cc4[nH]c(cc5nc(cc1[nH]2)C(C)(O)/C5=C\C=N\OCCCNC(=O)/C=C/c1ccc([10B](O)O)cc1)c(C)c4CCC(=O)N(CC(=O)[O-])CC(=O)[O-])C(CCC(=O)N(CC(=O)[O-])CC(=O)[O-])=C3C.[Na+].[Na+].[Na+].[Na+] (configuration not stated) | – | Non-toxic |
| Not Active | Active | Active | Active | Active | 100 | – | Active | Active | Active | 32.2 | 7.6 | Active | 0.27 | Active | C=Cc1c(C)c2cc3nc(cc4[nH]c(cc5nc(cc1[nH]2)C(C)(O)/C5=C\C=N\OCC)c(C)c4CCC(=O)NC(Cc1ccc([10B](O)O)cc1)C(=O)[O-])C(CCC(=O)NC(Cc1ccc([10B](O)O)cc1)C(=O)[O-])=C3C.[Na+].[Na+] (configuration not stated) | – | Non-toxic |
